Biological target: T1, Aromatase (Homo sapiens, UniProt P11511)
T1 sequence (P11511 whole entry): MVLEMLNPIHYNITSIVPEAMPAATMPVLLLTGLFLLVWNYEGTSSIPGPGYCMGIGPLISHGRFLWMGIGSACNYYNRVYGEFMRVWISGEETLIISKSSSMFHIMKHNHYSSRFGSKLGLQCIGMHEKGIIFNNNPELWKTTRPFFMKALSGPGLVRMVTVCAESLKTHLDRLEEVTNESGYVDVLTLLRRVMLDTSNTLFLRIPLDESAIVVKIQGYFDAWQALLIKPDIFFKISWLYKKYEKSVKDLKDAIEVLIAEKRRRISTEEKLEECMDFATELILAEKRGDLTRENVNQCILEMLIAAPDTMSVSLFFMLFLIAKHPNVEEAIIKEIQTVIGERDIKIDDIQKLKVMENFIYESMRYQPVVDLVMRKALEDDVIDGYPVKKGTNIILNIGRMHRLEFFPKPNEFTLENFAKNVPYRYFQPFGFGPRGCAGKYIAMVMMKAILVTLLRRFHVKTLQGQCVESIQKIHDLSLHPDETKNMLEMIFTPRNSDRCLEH
Assay: Aromatase Assay
Details: pH 7.5; 37 °C
Protocol: The enzyme activity was assayed by measuring the 3H-labeled H2O formed from [1beta-3H] Androstenedione during aromatization. After incubation, the reaction was terminated by CHCl3 extraction and centrifugation. Aliquots of the water phase were assayed for the presence of 3H2O by counting using a liquid scintillation spectrometer.

SMILES | IC50 [µM] | Ki [µM]
C[C@]12CCC3C(CCC4=CCCC[C@@]43CO)C1CCC2=O (stereo partly drawn) [(2S,15S)-2-(hydroxymethyl)-15-methyltetracyclo[8.7.0.0^{2,7}.0^{11,15}]heptadec-6-en-14-one] | 0.049 | 0.0058
C[C@]12CCC3C(CC=C4CCCC[C@@]43CO)C1CCC2=O (stereo partly drawn) [(2S,15S)-2-(hydroxymethyl)-15-methyltetracyclo[8.7.0.0^{2,7}.0^{11,15}]heptadec-7-en-14-one] | 6.9 | 1
C[C@]12CCC3C(C[C@H](O)C4=CCCC[C@@]43CO)C1CCC2=O (stereo partly drawn) [(2S,8S,15S)-8-hydroxy-2-(hydroxymethyl)-15-methyltetracyclo[8.7.0.0^{2,7}.0^{11,15}]heptadec-6-en-14-one] | 1.4 | 0.25
C[C@]12CCCCC1=CCC1C2CC[C@]2(C)C(=O)CCC12 (stereo partly drawn) [(2R,15S)-2,15-dimethyltetracyclo[8.7.0.0^{2,7}.0^{11,15}]heptadec-7-en-14-one] | 0.66 | 0.12
CC(=O)O[C@@H]1CCC[C@@]2(CO)C1=CCC1C2CC[C@]2(C)C(=O)CCC12 (stereo partly drawn) [(2S,6R,15S)-2-(hydroxymethyl)-15-methyl-14-oxotetracyclo[8.7.0.0^{2,7}.0^{11,15}]heptadec-7-en-6-yl acetate] | 11 | 
C[C@]12CCC3C(C[C@@H](O)C4=CCCC[C@@]43CO)C1CCC2=O (stereo partly drawn) [6beta,19-dihydroxyandrost-4-en-17-one] | 0.94 | 0.11
CO[C@H]1CCC[C@@]2(CO)C1=CCC1C2CC[C@]2(C)C(=O)CCC12 (stereo partly drawn) [4beta-Methoxy-19-hydroxyandrost-5-en-17-one] | 150 | 

From BindingDB's records for doi:10.1021/jm010282t (Tohoku Pharmaceutical University, 2001)
